In ChEMBL document CHEMBL1201862, “PubChem BioAssay data set” (2004):
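Where inhibition never reached the appropriate level, the endpoint shown equals the highest concentration tested. Otherwise, values were interpolated linearly from a five-concentration, 48-hour dose response in 96-well plates. At the GI50, growth is halved.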 The source made the active and inactive calls. Rule as the data show it: active = GI50 up to about 1.1 µM and inactive = higher.

Legend:
Test in all cases: inhibition of tumour cell growth, NCI panel, 48 h
DLD-1 = test system: DLD-1
DMS-273 = test system: DMS-273
XF498 = test system: XF498
HOP-18 = test system: HOP-18
LXFL 529 = test system: LXFL 529
SNB-78 = test system: SNB-78
MDA-N = test system: MDA-N
NCI/ADR-RES = test system: NCI/ADR-RES

Compound	GI50 (MDA-N)	GI50 (NCI/ADR-RES)	also measured
OC1C2CCC1C1C3C=CC(C3)C21 (stereo not drawn)	–	–	GI50 (DLD-1): > 100 µM (inactive); GI50 (DMS-273): 94.4 µM (inactive); GI50 (XF498): > 100 µM (inactive); GI50 (HOP-18): > 100 µM (inactive); GI50 (LXFL 529): 96.4 µM (inactive); GI50 (SNB-78): > 100 µM (inactive)
O=C1CC2(CCCc3sccc32)C(=O)N1 (stereo not drawn)	> 100 µM (inactive)	> 100 µM (inactive)	–
N#Cc1c(-c2ccccc2)cc(-c2cccs2)c(C#N)c1N	–	–	GI50 (DLD-1): > 100 µM (inactive); GI50 (DMS-273): > 100 µM (inactive); GI50 (XF498): > 100 µM (inactive); GI50 (HOP-18): 0.0134 µM (active); GI50 (LXFL 529): > 100 µM (inactive); GI50 (SNB-78): > 100 µM (inactive)
CC(NNC(=O)CC(=O)N(C(=O)c1ccccc1)c1ccc(Cl)cc1)c1cc2ccccc2oc1=O (stereo not drawn)	> 10 µM (inactive)	> 10 µM (inactive)	–
COc1ccc(/C=N/n2c(-c3ccccc3)n[nH]c2=O)c(OC)c1	> 100 µM (inactive)	29.2 µM (inactive)	–
O=C(CNC(=O)OCc1ccccc1)Oc1ccccc1	–	–	GI50 (DLD-1): > 100 µM (inactive); GI50 (DMS-273): > 100 µM (inactive); GI50 (XF498): > 100 µM (inactive); GI50 (HOP-18): > 100 µM (inactive); GI50 (LXFL 529): > 100 µM (inactive); GI50 (SNB-78): > 100 µM (inactive)
CCC(C)c1cnc(CC(C)C)c(=O)[nH]1 (stereo not drawn)	> 100 µM (inactive)	–	–
COC(=O)[C@@H]1C[C@@]2(C3C=CN(C(=O)C(F)(F)F)C=C3)c3ccccc3N(C(=O)C(F)(F)F)[C@H]2N1C(=O)OC	–	> 100 µM (inactive)	–
O=C(CSCC(=O)N/N=C\c1cc(Br)cc(Br)c1O)N/N=C\c1cc(Br)cc(Br)c1O	–	29.4 µM (inactive)	–
C[C@]12CC[C@@H]3c4ccc(OC(=O)c5ccccc5)cc4CC[C@H]3[C@@H]1CCC2OC(=O)c1cccc2c(=O)c3ccccc3[nH]c12 (stereo partly drawn)	11.1 µM (inactive)	18 µM (inactive)	–
COc1ccc(-c2c(C#N)c(O)n(NS(=O)(=O)c3ccc(C)cc3)c(=O)c2C#N)cc1	77.8 µM (inactive)	61.9 µM (inactive)	–
COc1nc2c(c(=O)n1C)NC(C(O)C(O)CO)C=N2 (stereo not drawn)	> 10 µM (inactive)	> 10 µM (inactive)	–
N[C@H](C(=O)O)[C@@H]1CC(Br)=NO1	8.41 µM (inactive)	39.7 µM (inactive)	–
CCN(CC(COc1ccc2c(c1)[n+]([O-])nc(N)[n+]2[O-])OC(C)=O)C(C)=O (stereo not drawn)	85.7 µM (inactive)	> 100 µM (inactive)	–
COC(=O)C(/C(=N/N)C(=O)Nc1cc(Cl)c(Cl)cc1Cl)c1nc2ccc(Cl)cc2nc1O (stereo not drawn)	> 100 µM (inactive)	84.5 µM (inactive)	–
COc1ccc(Cl)cc1NC(=O)c1cccc([N+](=O)[O-])c1O	19.8 µM (inactive)	10 µM (inactive)	GI50 (DLD-1): 8.95 µM (inactive); GI50 (HOP-18): 2.51 µM (inactive); GI50 (LXFL 529): 8.43 µM (inactive); GI50 (SNB-78): 19.4 µM (inactive)

Compound	GI50 (MDA-N)	GI50 (NCI/ADR-RES)	also measured
COc1c(-c2nc3ccc(N4CCN(C)CC4)nc3[nH]2)cc(OC)c2[nH]c(COC(C)=O)nc12	24.7 µM (inactive)	> 100 µM (inactive)	–
CC(C)C1=CC23CCC4C(C)(C(=O)O)CCCC4(C)C2CC1C1C(=O)N(c2ccccc2N2C(=O)C4C5CC6C7(C)CCCC(C)(C(=O)O)C7CCC6(C=C5C(C)C)C4C2=O)C(=O)C13 (stereo not drawn)	5 µM (inactive)	–	–
COc1ccc2c(c1)C(=O)Cc1ccccc1CC2	–	–	GI50 (DLD-1): > 100 µM (inactive); GI50 (DMS-273): > 100 µM (inactive); GI50 (XF498): > 100 µM (inactive); GI50 (HOP-18): > 100 µM (inactive); GI50 (LXFL 529): > 100 µM (inactive); GI50 (SNB-78): > 100 µM (inactive)
CC(C)(C)C1CC[C@H](O)[C@H]([C@@H](O)CC2CC(=O)N(c3ccccc3)C(=O)C2)C1 (stereo partly drawn)	> 100 µM (inactive)	67.9 µM (inactive)	–
COCCOCOc1ccc(OCOCCOC)c2c1C(=O)c1ccccc1C2=O	–	–	GI50 (DLD-1): 26.3 µM (inactive); GI50 (DMS-273): 49.1 µM (inactive); GI50 (XF498): > 100 µM (inactive); GI50 (HOP-18): 77.1 µM (inactive); GI50 (SNB-78): > 63.1 µM (inactive)
N=C(N)SC(c1ccccc1)c1ccccc1	13.6 µM (inactive)	17.2 µM (inactive)	–
CC1=NOC2(C1)C(=O)Nc1ccccc12 (stereo not drawn)	> 100 µM (inactive)	44.5 µM (inactive)	–
COC(=O)c1sc(=S)sc1SCc1ccccc1CSc1sc(=S)sc1C(=O)OC	> 100 µM (inactive)	> 100 µM (inactive)	–
CN(C)CC1CCC/C(=C\c2ccc(Cl)c(Cl)c2)C1=O (stereo not drawn)	3.42 µM (inactive)	3.05 µM (inactive)	–
CN(CCCN1CCCC1)CCCN(C)C(=O)Cc1ccc(Cl)c(Cl)c1	4.22 µM (inactive)	> 73.3 µM (inactive)	–
CN(C)c1ccc(/C=C(\NC(=O)c2ccccc2)C(=O)Nc2cccc(C(=O)NCCCO)c2)cc1	> 100 µM (inactive)	> 100 µM (inactive)	–
O=C1CCC2c3ccccc3NCN12 (stereo not drawn)	> 100 µM (inactive)	> 100 µM (inactive)	–
NC(=O)/C=C/C(=O)O	–	–	GI50 (DLD-1): > 5000 µM (inactive); GI50 (DMS-273): > 5000 µM (inactive); GI50 (HOP-18): > 5000 µM (inactive); GI50 (LXFL 529): > 5000 µM (inactive); GI50 (SNB-78): > 5000 µM (inactive)
Cc1ccc(-n2c(C)nc3c2C(=O)c2ccccc2C3=O)cc1	–	–	GI50 (DLD-1): 9.33 µM (inactive); GI50 (DMS-273): 9.86 µM (inactive); GI50 (XF498): 50.5 µM (inactive); GI50 (LXFL 529): 9.84 µM (inactive); GI50 (SNB-78): > 100 µM (inactive)
O=c1c2cccnc2[nH]c2ccc3scnc3c12	> 10 µM (inactive)	8.91 µM (inactive)	–
C/C=C/C(C#N)(/C=C/c1ccccc1)OP1(=O)OC(c2ccccc2)C(C)N1C (stereo not drawn)	20.3 µM (inactive)	–	–
